Tests used:
[1] = Cytotoxicity against mouse splenocytes assessed as cell viability at 125 ug/ml after 88 hrs by MTT assay; type: cell-based, Splenocyte; details: read-out: Activity
[2] = Cytotoxicity against mouse splenocytes assessed as cell viability at 15.6 ug/ml after 88 hrs by MTT assay; type: cell-based, Splenocyte; details: read-out: Activity
Splenocyte [3] = assay: Immunosuppressive activity against concanavalin A-activated mouse splenocytes assessed as [3H]thymidine incorporation at 2.0 ug/ml after 72 hrs by liquid scintillation counting; type: functional
Splenocyte [4] = assay: Immunosuppressive activity against mouse splenocytes assessed as [3H]thymidine incorporation at 2.0 ug/ml after 88 hrs by liquid scintillation counting; type: functional
[5] = Cytotoxicity against mouse splenocytes assessed as cell viability at 2.0 ug/ml after 88 hrs by MTT assay; type: cell-based, Splenocyte; details: read-out: Activity
Splenocyte [6] = assay: Immunosuppressive activity against concanavalin A-activated mouse splenocytes assessed as [3H]thymidine incorporation at 1.0 ug/ml after 72 hrs by liquid scintillation counting; type: functional
[7] = Cytotoxicity against mouse splenocytes assessed as cell viability at 500 ug/ml after 88 hrs by MTT assay; type: cell-based, Splenocyte; details: read-out: Activity
Splenocyte [8] = assay: Immunosuppressive activity against concanavalin A-activated mouse splenocytes assessed as [3H]thymidine incorporation at 15.6 ug/ml after 72 hrs by liquid scintillation counting; type: functional
Splenocyte [9] = assay: Immunosuppressive activity against mouse splenocytes assessed as [3H]thymidine incorporation at 31.3 ug/ml after 88 hrs by liquid scintillation counting; type: functional
[10] = Cytotoxicity against mouse splenocytes assessed as cell viability at 0.5 ug/ml after 88 hrs by MTT assay; type: cell-based, Splenocyte; details: read-out: Activity
Splenocyte [11] = assay: Immunosuppressive activity against concanavalin A-activated mouse splenocytes assessed as [3H]thymidine incorporation at 500 ug/ml after 72 hrs by liquid scintillation counting; type: functional
Splenocyte [12] = assay: Immunosuppressive activity against concanavalin A-activated mouse splenocytes assessed as [3H]thymidine incorporation at 0.3 ug/ml after 72 hrs by liquid scintillation counting; type: functional
Splenocyte [13] = assay: Immunosuppressive activity against concanavalin A-activated mouse splenocytes assessed as [3H]thymidine incorporation at 125 ug/ml after 72 hrs by liquid scintillation counting; type: functional
Splenocyte [14] = assay: Immunosuppressive activity against concanavalin A-activated mouse splenocytes assessed as [3H]thymidine incorporation at 3.9 ug/ml after 72 hrs by liquid scintillation counting; type: functional
Splenocyte [15] = assay: Immunosuppressive activity against concanavalin A-activated mouse splenocytes assessed as [3H]thymidine incorporation at 31.3 ug/ml after 72 hrs by liquid scintillation counting; type: functional
Splenocyte [16] = assay: Immunosuppressive activity against concanavalin A-activated mouse splenocytes assessed as [3H]thymidine incorporation at 7.8 ug/ml after 72 hrs by liquid scintillation counting; type: functional
[17] = Cytotoxicity against mouse splenocytes assessed as cell viability at 62.5 ug/ml after 88 hrs by MTT assay; type: cell-based, Splenocyte; details: read-out: Activity
[18] = Cytotoxicity against mouse splenocytes assessed as cell viability at 1.0 ug/ml after 88 hrs by MTT assay; type: cell-based, Splenocyte; details: read-out: Activity
[19] = Cytotoxicity against mouse splenocytes assessed as cell viability at 3.9 ug/ml after 88 hrs by MTT assay; type: cell-based, Splenocyte; details: read-out: Activity
Splenocyte [20] = assay: Immunosuppressive activity against mouse splenocytes assessed as [3H]thymidine incorporation at 62.5 ug/ml after 88 hrs by liquid scintillation counting; type: functional
Splenocyte [21] = assay: Immunosuppressive activity against mouse splenocytes assessed as [3H]thymidine incorporation at 1.0 ug/ml after 88 hrs by liquid scintillation counting; type: functional
[22] = Cytotoxicity against mouse splenocytes assessed as cell viability at 31.3 ug/ml after 88 hrs by MTT assay; type: cell-based, Splenocyte; details: read-out: Activity
Splenocyte [23] = assay: Immunosuppressive activity against mouse splenocytes assessed as [3H]thymidine incorporation at 125 ug/ml after 88 hrs by liquid scintillation counting; type: functional
Splenocyte [24] = assay: Immunosuppressive activity against concanavalin A-activated mouse splenocytes assessed as [3H]thymidine incorporation at 0.5 ug/ml after 72 hrs by liquid scintillation counting; type: functional
Splenocyte [25] = assay: Immunosuppressive activity against concanavalin A-activated mouse splenocytes assessed as [3H]thymidine incorporation at 62.5 ug/ml after 72 hrs by liquid scintillation counting; type: functional
Splenocyte [26] = assay: Immunosuppressive activity against mouse splenocytes assessed as [3H]thymidine incorporation at 3.9 ug/ml after 88 hrs by liquid scintillation counting; type: functional
Splenocyte [27] = assay: Immunosuppressive activity against mouse splenocytes assessed as [3H]thymidine incorporation at 7.8 ug/ml after 88 hrs by liquid scintillation counting; type: functional
Splenocyte [28] = assay: Immunosuppressive activity against mouse splenocytes assessed as [3H]thymidine incorporation at 15.6 ug/ml after 88 hrs by liquid scintillation counting; type: functional
Splenocyte [29] = assay: Immunosuppressive activity against mouse splenocytes assessed as [3H]thymidine incorporation at 0.5 ug/ml after 88 hrs by liquid scintillation counting; type: functional
[30] = Cytotoxicity against mouse splenocytes assessed as cell viability at 0.3 ug/ml after 88 hrs by MTT assay; type: cell-based, Splenocyte; details: read-out: Activity
[31] = Cytotoxicity against mouse splenocytes assessed as cell viability at 250 ug/ml after 88 hrs by MTT assay; type: cell-based, Splenocyte; details: read-out: Activity
Splenocyte [32] = assay: Immunosuppressive activity against mouse splenocytes assessed as [3H]thymidine incorporation at 500 ug/ml after 88 hrs by liquid scintillation counting; type: functional
Splenocyte [33] = assay: Immunosuppressive activity against mouse splenocytes assessed as [3H]thymidine incorporation at 250 ug/ml after 88 hrs by liquid scintillation counting; type: functional
[34] = Cytotoxicity against mouse splenocytes assessed as cell viability at 7.8 ug/ml after 88 hrs by MTT assay; type: cell-based, Splenocyte; details: read-out: Activity
Splenocyte [35] = assay: Immunosuppressive activity against concanavalin A-activated mouse splenocytes assessed as [3H]thymidine incorporation at 250 ug/ml after 72 hrs by liquid scintillation counting; type: functional
[36] = Cytotoxicity against mouse splenocytes assessed as cell viability at 0.25 ug/ml after 88 hrs by MTT assay; type: cell-based, Splenocyte; details: read-out: Activity
Splenocyte [37] = assay: Immunosuppressive activity against mouse splenocytes assessed as [3H]thymidine incorporation at 0.25 ug/ml after 88 hrs by liquid scintillation counting; type: functional

Compound | viability at 88 h, 125 ug/ml [1] [%] | viability at 88 h, 15.6 ug/ml [2] [%] | Activity (Splenocyte [4]) [%] | viability at 88 h, 2 ug/ml [5] [%] | viability at 88 h, 500 ug/ml [7] [%] | Activity (Splenocyte [9]) [%] | viability at 88 h, 0.5 ug/ml [10] [%] | viability at 88 h, 62.5 ug/ml [17] [%] | viability at 88 h, 1 ug/ml [18] [%] | viability at 88 h, 3.9 ug/ml [19] [%] | Activity (Splenocyte [20]) [%] | Activity (Splenocyte [21]) [%] | viability at 88 h, 31.3 ug/ml [22] [%] | Activity (Splenocyte [23]) [%] | Activity (Splenocyte [26]) [%] | Activity (Splenocyte [27]) [%] | Activity (Splenocyte [28]) [%] | Activity (Splenocyte [29]) [%] | viability at 88 h, 250 ug/ml [31] [%] | Activity (Splenocyte [32]) [%] | further results
O=C(O)c1cc(Br)c(Br)[nH]1 | 12 | 66 | 31 | 99 | 10 | 100 | 113 | 27 | 95 | 80 | 100 | 13 | 27 | 100 | 59 | 40 | 100 | 0 | 0 | 100 | Activity (Splenocyte [3]): 29%; Activity (Splenocyte [6]): 43%; Activity (Splenocyte [8]): 84%; Activity (Splenocyte [11]): 83%; Activity (Splenocyte [12]): 50%; Activity (Splenocyte [13]): 83%; Activity (Splenocyte [14]): 70%; Activity (Splenocyte [15]): 83%; Activity (Splenocyte [16]): 64%; Activity (Splenocyte [24]): 39%; Activity (Splenocyte [25]): 83%; viability at 88 h, 0.3 ug/ml [30]: 100%; Activity (Splenocyte [33]): 100%; viability at 88 h, 7.8 ug/ml [34]: 99%; Activity (Splenocyte [35]): 99%
CC(C)CCC[C@@H](C)[C@H]1CC[C@H]2C3=C(CC[C@]12C)[C@@]1(C)CC[C@H](O)[C@@H](C)[C@@H]1CC3 | 28 | 92 | 100 | 77 | 6 | 100 | 118 | 72 | 97 | 99 | 100 | 81 | 85 | 100 | 100 | 100 | 100 | 46 | 10 | 100 | viability at 88 h, 0.25 ug/ml [36]: 104%; Activity (Splenocyte [37]): 0%; Activity (Splenocyte [33]): 100%; viability at 88 h, 7.8 ug/ml [34]: 80%

From ChEMBL document CHEMBL1147293, “Immunosuppressive compounds from a deep water marine sponge, Agelas flabelliformis” (J Nat Prod, 1989)
